Paper PMC7203344, “Sirtuin 1 Inhibiting Thiocyanates (S1th)—A New Class of Isotype Selective Inhibitors of NAD^+ Dependent Lysine Deacetylases” (Frontiers in Oncology, 2020)
Several values for one entry are separate records, joined by “and”; a condition that tells them apart may be missing. Identical values can stand only once. Entries after “also recorded” stand apart in the source; their conditions may differ. Each block holds one molecule with its values, some of them ahead of it.

Experiments:
Sirt1 [1] = target: T1, Sirt1 (Homo sapiens, UniProt Q96EB6); experiment: Fluorescent thermal shift assay (FTSA), Sirt1; assay type: binding
T1 construct: made in house; host or cells: E. coli BL21 Star (DE3)
T1 sequence (Q96EB6 134-747): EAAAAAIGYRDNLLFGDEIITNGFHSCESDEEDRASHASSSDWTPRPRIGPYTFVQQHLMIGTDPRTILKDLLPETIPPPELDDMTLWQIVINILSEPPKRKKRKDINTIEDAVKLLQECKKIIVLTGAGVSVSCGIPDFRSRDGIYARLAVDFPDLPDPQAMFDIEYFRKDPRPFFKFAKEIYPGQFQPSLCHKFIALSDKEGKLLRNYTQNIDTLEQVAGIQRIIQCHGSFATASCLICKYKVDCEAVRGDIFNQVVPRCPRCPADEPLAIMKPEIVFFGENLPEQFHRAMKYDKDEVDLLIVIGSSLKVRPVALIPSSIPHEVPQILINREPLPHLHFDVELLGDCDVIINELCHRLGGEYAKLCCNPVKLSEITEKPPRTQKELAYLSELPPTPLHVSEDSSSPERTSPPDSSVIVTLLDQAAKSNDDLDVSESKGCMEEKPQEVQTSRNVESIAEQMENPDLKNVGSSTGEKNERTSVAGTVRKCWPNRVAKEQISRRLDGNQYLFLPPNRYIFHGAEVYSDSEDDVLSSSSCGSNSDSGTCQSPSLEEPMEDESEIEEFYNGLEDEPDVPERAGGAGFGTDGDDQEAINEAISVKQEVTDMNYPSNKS
Method: In a 96-well plate (Hard-Shell® PCR-plates, 96-well, thin-wall, BioRAD, USA) 14 μL Sirt1_134−747 in assay buffer (0.3 mg/mL final assay concentration, 50 mM Tris/HCl, 137 mM NaCl, 2.7 mM KCl, 1 mM MgCL2, pH 8.0) were mixed with 1 μL inhibitor in DMSO (100 μM) or DMSO [final assay concentration 5% (v/v)] as a control and 5 μL SyproOrange (1:100 in assay buffer). The fluorescence intensity was monitored during a constant increase of temperature from 20 to 95°C, 1 K per 20 s, using a real-time-PCR-machine (C1000 TouchTM Thermal Cycler, CFX96TM Real-Time System, BioRAD, USA). Melting temperatures were calculated via GraphPad Prism according to a published procedure ([60]).

Sirt1 [2] = target: T1, Sirt1; experiment: Homogeneous ZMAL-based fluorescence assay, Sirt1; assay type: biochemical
Method: (§1) Recombinant human Sirt5_37−310 was purchased readily in Tris Buffer [25 mM Tris, 100 mM NaCl, 5 mM DTT, 10% glycerol (v/v)] from Enzo Life Sciences (NY, USA). Human Sirt3_118−395 was expressed and purified as described previously ([54]). For expression of human Sirt1_134−747 and Sirt2_56−356 chemically competent cells of E. coli BL21 Star (DE3) were transformed with the expression vectors pET30S-hSirt1_134−747 or pET30S-hSirt2_56−356. Bacteria were grown at 37°C in 2×YT medium supplemented with 50 μg·mL^−1 of kanamycin to an OD600 of 0.6. Then isopropyl-β-D-1-thiogalactopyranoside (IPTG) was added to a final concentration of 1 mM to induce gene expression. After further cultivation at 20°C for 12 h, the cells were harvested by centrifugation for 15 min at 5,000 g. The cells were resuspended in lysis buffer [100 mM Tris/HCl buffer at pH 8.0, 150 mM NaCl and 10% (v/v) glycerol] and disrupted by ultrasonication (Branson Digital Sonifier 250) at 70% amplitude for 10 min (3 s working, 10 s pause). The crude extract was cleared by centrifugation at 100,000 g for 1 h, and the supernatant was loaded onto a Strep-Tactin Superflow cartridge (5 ml bed volume, IBA Lifescience, Germany). Target proteins were eluted with lysis buffer containing 5 mM D-Desthiobiotin (IBA Lifescience, Germany) and further separated by size-exclusion chromatography (Superdex S200 26/60, GE Healthcare, IL, USA) equilibrated in Tris/HCl buffer (20 mM, 150 mM NaCl, pH 8.0). Pure protein was concentrated by ultrafiltration, flash-frozen in liquid nitrogen and stored at −80°C until further use. Identity as well as purity were verified by SDS-PAGE ([55]) and protein concentration was determined by the bicinchoninic acid (BCA) method, using bovine serum albumin (BSA) as a standard ([56]). Deacetylase activity was confirmed to be NAD^+-dependent and could be inhibited with the physiological sirtuin inhibitor nicotinamide.
(§2) All compounds were tested in the trypsin-coupled high-throughput ZMAL-assay in black 96-well plates (OptiPlateTM−96F, black, 96 well, Pinch bar design, PerkinElmer, USA), using ZMAL (Z-Lys(acetyl)-AMC) as a substrate ([57]). Sirt1_134−747, Sirt2_56−356, and Sirt3_118−395 were mixed with 5 μL substrate (10.5 μM final assay concentration, diluted from a […] stock in DMSO) and 3 μL Inhibitor in DMSO at various concentrations or DMSO as a control [final DMSO concentration 5% (v/v)]. The mixture was supplemented with assay buffer (50 mM Tris/HCl, 137 mM NaCl, 2.7 mM KCl, 1 mM MgCL2, pH 8.0) to a total volume of 55 μL. Enzyme concentration was adjusted to get a final conversion of 20–30%. Addition of 5 μL NAD^+ (6 mM in assay buffer, final assay concentration of 500 μM) initiated the catalytic reaction and the plates were incubated at 37°C for 4 h with agitation at 140 rpm. The catalytic reaction was stopped by addition of 60 μL stop solution [50 mM Tris, 100 mM NaCl, 6.7% (V/V) DMSO, 5.5 U/μL trypsin, 8 μM nicotinamide, pH 8.0]. The plate was again incubated at 37°C and 140 rpm for 20 min to release free AMC from the deacetylated substrate by trypsin digestion. Afterwards, fluorescence intensity was measured in a microplate reader (λEx = 390 nm, λEm = 460 nm, BMG POLARstar Optima, BMG Labtech, Germany). An enzyme-free blank control and a 100% conversion control containing AMC instead of ZMAL were measured in addition. Inhibition was calculated in % in relation to a DMSO control after blank signal subtraction and IC50 values were determined using a non-linear regression to fit the dose-response curve with OriginPro 9G (OriginLab, USA). Pre-tests as well as IC50 determination was carried out at least twice in duplicates.

human Sirt2 = target: T2, human Sirt2 (Homo sapiens, UniProt Q8IXJ6); experiment: Homogeneous ZMAL-based fluorescence assay, Sirt2; assay type: biochemical
T2 construct: made in house; host or cells: E. coli BL21 Star (DE3)
T2 sequence (Q8IXJ6 56-356): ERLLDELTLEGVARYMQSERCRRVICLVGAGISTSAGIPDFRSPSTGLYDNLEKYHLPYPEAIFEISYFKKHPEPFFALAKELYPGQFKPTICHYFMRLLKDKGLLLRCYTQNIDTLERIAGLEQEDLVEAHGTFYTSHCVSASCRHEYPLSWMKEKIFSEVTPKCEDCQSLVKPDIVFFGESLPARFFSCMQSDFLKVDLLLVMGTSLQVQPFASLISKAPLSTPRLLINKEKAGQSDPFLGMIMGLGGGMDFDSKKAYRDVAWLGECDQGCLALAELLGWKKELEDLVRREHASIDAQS
Method: as §1, §2

human Sirt3 = target: T3, human Sirt3 (Homo sapiens, UniProt Q9NTG7); experiment: Homogeneous ZMAL-based fluorescence assay, Sirt3; assay type: biochemical
T3 construct: Human Sirt3_118−395 was expressed and purified as described previously; made in house
T3 sequence (Q9NTG7 118-395): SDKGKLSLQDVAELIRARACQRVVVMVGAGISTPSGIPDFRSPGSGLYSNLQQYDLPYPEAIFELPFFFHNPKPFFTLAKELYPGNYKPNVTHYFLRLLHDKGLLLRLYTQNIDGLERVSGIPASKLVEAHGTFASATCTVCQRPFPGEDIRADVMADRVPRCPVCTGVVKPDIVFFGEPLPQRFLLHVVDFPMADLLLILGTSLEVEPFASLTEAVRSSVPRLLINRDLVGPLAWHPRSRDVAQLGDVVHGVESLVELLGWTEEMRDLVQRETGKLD
Method: as §1, §2

[3] = tested on: γH2AX/H2AX levels in MEF cells; experiment: γH2AX level determination by western blot; assay type: cell-based, mouse; conditions: 48 h, EX-527 10 μM, S1th 10 30 μM, S1th 12 20 μM, S1th 13 12 μM, SirReal2 30 μM
Method: Sirt1 WT and KO MEFS cells were treated with 10 μM EX-527, 12 μM S1th 13 (6), 20 μM S1th 12 (5), 30 μM S1th 10 (7) and 30 μM SirReal2 [Sirt2 inhibitor, synthesized according to ([62])] for 48 h. Oxidative stress was induced using 10 μM Camptothecin 2 h. Whole-cell extracts were performed according to the Dignam protocol ([63]). Primary antibodies used for the western blot were anti-H2AX and anti-γH2AX (ab11175 and ab2893 resp., Abcam, UK). Densiometric analysis of the western blots was performed with Quantity One software (Bio-Rad Laboratories, Inc., USA).

[4] = 2nd round of in vitro screening

- effect on Tm of Sirt1 (in words) (Sirt1 [1]): slightly increased
Molecule: NC(=O)c1ccc[n+]([C@@H]2O[C@H](COP(=O)([O-])OP(=O)(O)OC[C@H]3O[C@@H](n4cnc5c(N)ncnc54)[C@H](O)[C@@H]3O)[C@@H](O)[C@H]2O)c1 [NAD^+]

- inhibition at 50 µM (Sirt1 [2]; 50 µM, primary screen): 82%
- IC50 (Sirt1 [2]; [4]): 13 ± 0.6 µM
- inhibition at 50 µM (human Sirt2; [4]): 23%
- inhibition at 50 µM (human Sirt3; [4]): < 10%
Molecule: CCCc1cc(=O)[nH]c(SCC(=O)Nc2cccc(SC#N)c2)n1 [S1th 1]

Molecule: O=C(Nc1ccccc1-c1cn2c(CN3CCNCC3)csc2n1)c1cnc2ccccc2n1 [SRT1720]
- effect on Tm of Sirt1 (in words) (Sirt1 [1]): barely effected; also recorded: very small shift or no shift at all

- IC50 (Sirt1 [2]; 3rd round): 6.34 µM and 6.3 µM
- inhibition at 50 µM (human Sirt2; 3rd round): < 10%
- inhibition at 50 µM (human Sirt3; 3rd round): < 10%
Molecule: N#CSc1cccc(NC(=O)c2ccc3c(c2)OCCO3)c1 [S1th 7]

- effect on Tm of Sirt1 (in words) (Sirt1 [1]): no reasonable melting curve is obtained
Molecule: O=c1c2cccnc2sn1Cc1ccc(C(F)(F)F)cc1 [PU141]

Molecule: Cc1cc(C)nc(SCC(=O)Nc2ncc(Cc3cccc4ccccc34)s2)n1 [SirReal2, reference compound]
- γH2AX/H2AX levels without Camptothecin [3]: does not affect

Molecule: adenosine diphosphate ribose [ADPR]
- effect on Tm of Sirt1 (in words) (Sirt1 [1]): strongly increased
- stabilization (increase of Tm) of Sirt1 (Sirt1 [1]): up to 4 K
